According to the NIST ThermoML archive (doi:10.1016/j.jct.2011.02.008):

Test: xn = mol fraction of the nth substance listed
Conditions: Liquid, Vibrating tube method

COC(=O)c1ccccc1 [methyl benzoate] + C1CCCCC1
mass density [kg/m3]
Conditions	x1 = 0.0985	x1 = 0.1963	x1 = 0.2939	x1 = 0.3942	x1 = 0.4955	x1 = 0.596	x1 = 0.6975	x1 = 0.7993	x1 = 0.8982
338.15 K, 45000 kPa	–	–	–	–	–	961.4	991.1	1019.6	1047.5
338.15 K, 50000 kPa	810.6	841.5	872.3	903.1	933.8	964.7	994.4	1022.8	1050.5
338.15 K, 55000 kPa	814.1	844.9	875.7	906.4	937.1	967.9	997.5	1025.8	1053.6
338.15 K, 60000 kPa	817.3	848.1	878.8	909.7	940.1	971.1	1000.4	1028.6	1056.3
348.15 K, 100 kPa	756.3	788.1	820	852.1	884.1	916.3	947.3	976.9	1005.9
348.15 K, 1000 kPa	757.4	789.2	820.9	853	885	917.1	948.1	977.7	1006.7
348.15 K, 5000 kPa	762.1	793.8	825.6	857.4	889.1	921.1	951.8	981.3	1010.1
348.15 K, 10000 kPa	767.9	799.3	830.9	862.4	894	925.8	956.3	985.5	1014.3
348.15 K, 15000 kPa	773.1	804.4	835.8	867.2	898.6	930.2	960.6	989.7	1018.2
348.15 K, 20000 kPa	778.1	809.3	840.5	871.8	903.1	934.4	964.7	993.6	1022
348.15 K, 25000 kPa	782.8	813.9	845	876.1	907.3	938.5	968.7	997.5	1025.7
348.15 K, 30000 kPa	787.2	818.2	849.3	880.3	911.3	942.4	972.5	1001.1	1029.3
348.15 K, 35000 kPa	791.5	822.4	853.4	884.2	915.2	946.2	976.1	1004.7	1032.7
348.15 K, 40000 kPa	795.5	826.4	857.3	888.1	918.9	949.9	979.7	1008.2	1036.1
348.15 K, 45000 kPa	799.5	830.3	861.1	891.8	922.6	953.4	983.2	1011.5	1039.4
348.15 K, 50000 kPa	803.2	834	864.7	895.4	926.1	956.9	986.5	1014.8	1042.5
348.15 K, 55000 kPa	806.8	837.6	868.3	898.9	929.5	960.2	989.8	1018	1045.7
348.15 K, 60000 kPa	810.1	840.9	871.4	902.1	932.6	963.3	992.7	1020.9	1048.5
358.15 K, 100 kPa	746	778	809.9	842	874.1	906.3	937.3	967	996.1
358.15 K, 1000 kPa	747.1	779.1	811	843.1	875.1	907.3	938.3	967.9	996.9
358.15 K, 5000 kPa	752.5	784.2	815.9	847.7	879.4	911.4	942	971.7	1000.6
358.15 K, 10000 kPa	757.8	790	821.5	853.1	884.7	916.4	947	976.2	1004.9
358.15 K, 15000 kPa	764.1	795.5	826.7	858.2	889.6	921.1	951.4	980.6	1009
358.15 K, 20000 kPa	769.4	800.6	831.8	863	894.2	925.6	955.8	984.7	1013
358.15 K, 25000 kPa	774.3	805.5	836.5	867.6	898.6	929.9	960	988.7	1016.9
358.15 K, 30000 kPa	779	810	841	871.8	902.9	934	963.9	992.6	1020.6
358.15 K, 35000 kPa	783.5	814.4	845.3	876.1	907	938	967.8	996.3	1024.2
358.15 K, 40000 kPa	787.7	818.6	849.4	880.1	910.9	941.8	971.5	999.9	1027.8
358.15 K, 45000 kPa	791.8	822.6	853.3	884	914.7	945.5	975.1	1003.4	1031.2
358.15 K, 50000 kPa	795.7	826.5	857.1	887.8	918.3	949	978.6	1006.8	1034.5
358.15 K, 55000 kPa	799.5	830.2	860.8	891.4	921.9	952.5	982	1010.1	1037.8
358.15 K, 60000 kPa	802.9	832.8	864.2	894.6	925.1	955.7	985	1013.1	1040.9
